Test results taken from US20140323300A1, “HERBICIDAL COMPOUNDS” (SYNGENTA LIMITED, priority 2011, published 2014).

Columns and labels:
Format in all cases: in vivo
[1] = tested on: Alopecurus myosuroides (ALOMY); assay: Post-emergence glasshouse herbicide test; details: post-emergence (sprayed after 8 days cultivation), 1000 g/h, evaluated after 13 days, five point scale
In short: (§1)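 Damage was rated 13 days after treatment on a five-point scale (1 = 0–19%, 5 = 80–100%). The compound, formulated in 50:50 acetone/water with 0.5% Tween 20, was sprayed at 1000 g/h on pots one day (pre) or 8 days (post) after sowing, kept in a glasshouse at 24/16° C, 14 h light, 65% humidity.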

[2] = tested on: Amaranthus retoflexus (AMARE); assay: Post-emergence glasshouse herbicide test; details: post-emergence (sprayed after 8 days cultivation), 1000 g/h, evaluated after 13 days, five point scale
In short: as §1

[3] = tested on: Echinochloa crus-galli (ECHCG); assay: Post-emergence glasshouse herbicide test; details: post-emergence (sprayed after 8 days cultivation), 1000 g/h, evaluated after 13 days, five point scale
In short: as §1

[4] = tested on: Ipomoea hederacea (IPOHE); assay: Post-emergence glasshouse herbicide test; details: post-emergence (sprayed after 8 days cultivation), 1000 g/h, evaluated after 13 days, five point scale
In short: as §1

Setaria faberi (SETFA) [5] = assay: Post-emergence glasshouse herbicide test; details: post-emergence (sprayed after 8 days cultivation), 1000 g/h, evaluated after 13 days, five point scale
In short: as §1

Solanum nigrum (SOLNI) [6] = assay: Post-emergence glasshouse herbicide test; details: post-emergence (sprayed after 8 days cultivation), 1000 g/h, evaluated after 13 days, five point scale
In short: as §1

[7] = tested on: Alopecurus myosuroides (ALOMY); assay: Pre-emergence glasshouse herbicide test; details: pre-emergence (sprayed after one day cultivation), 1000 g/h, evaluated after 13 days, five point scale
In short: as §1

[8] = tested on: Amaranthus retoflexus (AMARE); assay: Pre-emergence glasshouse herbicide test; details: pre-emergence (sprayed after one day cultivation), 1000 g/h, evaluated after 13 days, five point scale
In short: as §1

[9] = tested on: Echinochloa crus-galli (ECHCG); assay: Pre-emergence glasshouse herbicide test; details: pre-emergence (sprayed after one day cultivation), 1000 g/h, evaluated after 13 days, five point scale
In short: as §1

[10] = tested on: Ipomoea hederacea (IPOHE); assay: Pre-emergence glasshouse herbicide test; details: pre-emergence (sprayed after one day cultivation), 1000 g/h, evaluated after 13 days, five point scale
In short: as §1

Setaria faberi (SETFA) [11] = assay: Pre-emergence glasshouse herbicide test; details: pre-emergence (sprayed after one day cultivation), 1000 g/h, evaluated after 13 days, five point scale
In short: as §1

Solanum nigrum (SOLNI) [12] = assay: Pre-emergence glasshouse herbicide test; details: pre-emergence (sprayed after one day cultivation), 1000 g/h, evaluated after 13 days, five point scale
In short: as §1

SMILES | percentage damage caused to the plant, POST Application ALOMY [1] | percentage damage caused to the plant, POST Application AMARE [2] | percentage damage caused to the plant, POST Application ECHCG [3] | percentage damage caused to the plant, POST Application IPOHE [4] | percentage damage caused to the plant, POST Application SETFA (Setaria faberi (SETFA) [5]) | percentage damage caused to the plant, POST Application SOLNI (Solanum nigrum (SOLNI) [6]) | percentage damage caused to the plant, PRE Application ALOMY [7] | percentage damage caused to the plant, PRE Application AMARE [8] | percentage damage caused to the plant, PRE Application ECHCG [9] | percentage damage caused to the plant, PRE Application IPOHE [10] | percentage damage caused to the plant, PRE Application SETFA (Setaria faberi (SETFA) [11]) | percentage damage caused to the plant, PRE Application SOLNI (Solanum nigrum (SOLNI) [12])
Cc1nc(C(F)(F)F)ccc1-n1ncc([S+](C)[O-])c(O)c1=O (stereo not drawn) [Compound 1.030] | 2 (2=20-39%) | 4 (4=60-79%) | 5 (5=80-100%) | 3 (3=40-59%) | 5 (5=80-100%) | 5 (5=80-100%) | 2 (2=20-39%) | 4 (4=60-79%) | 5 (5=80-100%) | 3 (3=40-59%) | 5 (5=80-100%) | 5 (5=80-100%)
CS(=O)(=O)c1cc(C(F)(F)F)ccc1-n1ncc(C2CC2)c(O)c1=O [Compound 1.031] | 5 (5=80-100%) | 5 (5=80-100%) | 5 (5=80-100%) | 5 (5=80-100%) | 5 (5=80-100%) | 5 (5=80-100%) | 5 (5=80-100%) | 5 (5=80-100%) | 5 (5=80-100%) | 5 (5=80-100%) | 5 (5=80-100%) | 5 (5=80-100%)
CS(=O)(=O)c1cc(C(F)(F)F)ccc1-n1ncc(Br)c(O)c1=O [Compound 1.032] | 5 (5=80-100%) | 5 (5=80-100%) | 5 (5=80-100%) | 5 (5=80-100%) | 5 (5=80-100%) | 5 (5=80-100%) | 5 (5=80-100%) | 5 (5=80-100%) | 5 (5=80-100%) | 5 (5=80-100%) | 5 (5=80-100%) | 5 (5=80-100%)
CSc1cnn(-c2ccc(C(F)(F)F)cc2S(C)(=O)=O)c(=O)c1O [Compound 1.034] | 1 (1=0-19%) | 5 (5=80-100%) | 4 (4=60-79%) | 4 (4=60-79%) | 3 (3=40-59%) | 5 (5=80-100%) | 1 (1=0-19%) | 5 (5=80-100%) | 4 (4=60-79%) | 4 (4=60-79%) | 3 (3=40-59%) | 5 (5=80-100%)
CCc1cnn(-c2ccc(C(F)(F)F)nc2S(C)(=O)=O)c(=O)c1O [Compound 1.036] | 5 (5=80-100%) | 5 (5=80-100%) | 5 (5=80-100%) | 5 (5=80-100%) | 5 (5=80-100%) | 5 (5=80-100%) | 5 (5=80-100%) | 5 (5=80-100%) | 5 (5=80-100%) | 5 (5=80-100%) | 5 (5=80-100%) | 5 (5=80-100%)
CCc1cnn(-c2ccc(Cl)cc2S(C)(=O)=O)c(=O)c1O [Compound 1.037] | 5 (5=80-100%) | 5 (5=80-100%) | 5 (5=80-100%) | 4 (4=60-79%) | 5 (5=80-100%) | 5 (5=80-100%) | 5 (5=80-100%) | 5 (5=80-100%) | 5 (5=80-100%) | 4 (4=60-79%) | 5 (5=80-100%) | 5 (5=80-100%)
CCc1ccc(-n2ncc(CC)c(O)c2=O)c(S(C)(=O)=O)c1 [Compound 1.038] | 4 (4=60-79%) | 5 (5=80-100%) | 5 (5=80-100%) | 5 (5=80-100%) | 5 (5=80-100%) | 5 (5=80-100%) | 4 (4=60-79%) | 5 (5=80-100%) | 5 (5=80-100%) | 5 (5=80-100%) | 5 (5=80-100%) | 5 (5=80-100%)
C[S+]([O-])c1cnn(-c2ccc(C(F)(F)F)cc2S(C)(=O)=O)c(=O)c1O (stereo not drawn) [Compound 1.041] | 1 (1=0-19%) | 5 (5=80-100%) | 4 (4=60-79%) | 4 (4=60-79%) | 2 (2=20-39%) | 5 (5=80-100%) | 1 (1=0-19%) | 5 (5=80-100%) | 4 (4=60-79%) | 4 (4=60-79%) | 2 (2=20-39%) | 5 (5=80-100%)
CS(=O)(=O)c1cc(C(F)(F)F)ccc1-n1ncc(S(C)(=O)=O)c(O)c1=O [Compound 1.042] | 1 (1=0-19%) | 2 (2=20-39%) | 1 (1=0-19%) | 1 (1=0-19%) | 1 (1=0-19%) | 2 (2=20-39%) | 1 (1=0-19%) | 2 (2=20-39%) | 1 (1=0-19%) | 1 (1=0-19%) | 1 (1=0-19%) | 2 (2=20-39%)
Cc1c(-n2ncc([S+](C)[O-])c(O)c2=O)ccc(S(C)(=O)=O)c1C1=NOCC1 (stereo not drawn) [Compound 1.043] | 1 (1=0-19%) | 5 (5=80-100%) | 3 (3=40-59%) | 3 (3=40-59%) | 3 (3=40-59%) | 4 (4=60-79%) | 1 (1=0-19%) | 5 (5=80-100%) | 3 (3=40-59%) | 3 (3=40-59%) | 3 (3=40-59%) | 4 (4=60-79%)
CC(=O)NC(C)(C)Cc1cnn(-c2ccc(C(F)(F)F)cc2S(C)(=O)=O)c(=O)c1O [Compound 1.044] | 1 (1=0-19%) | 5 (5=80-100%) | 5 (5=80-100%) | 4 (4=60-79%) | 2 (2=20-39%) | 4 (4=60-79%) | 1 (1=0-19%) | 5 (5=80-100%) | 5 (5=80-100%) | 4 (4=60-79%) | 2 (2=20-39%) | 4 (4=60-79%)
